In ChEMBL document CHEMBL5113424, “Identification of small-molecule urea derivatives as PTPC modulators targeting the c subunit of F1/Fo-ATP synthase” (Bioorg Med Chem Lett, 2022):
The source made the active and inactive calls. No cut-off for these calls is given here.

tested on: AC16 [Human hybrid]; assay: Inhibition of PTPC in human AC16 cells at 1 uM measured by calcein-cobalt assay relative to control; type: cell-based; conditions: not given

Structure (SMILES) | inhibition
O=C(NC1CCCC1)NC1CCCC1 | 16.4%
CC(C)(C)NC(=O)NC1CCCCC1 | 43.2%
O=C(Nc1ccccc1)Nc1ccccc1 | 28.1%
N#Cc1ccc(NC(=O)Nc2ccc(C#N)cc2)cc1 | 25.4%
C(=NC1CCCCC1)=NC1CCCCC1 | Active
O=C(NC1CC1)NC1CC1 | 3.87%
CCOC(=O)c1ccc(NC(=O)Nc2ccc(C(=O)OCC)cc2)cc1 | 9.75%
O=C(NC1CCCCC1)NC1CCCCC1 | 28%
COc1ccc(NC(=O)Nc2ccccc2)cc1 | 4.6%

tested on: AC16 [Human hybrid]; assay: Activation of PTPC in human AC16 cells at 1 uM measured by calcein-cobalt assay relative to control; type: cell-based; conditions: not given

Structure (SMILES) | inhibition [%]
O=C(NCc1ccccc1)NCc1ccccc1 | 30.4
S=C(NC1CCCCC1)NC1CCCCC1 | 32.4
S=C(NCc1ccccc1)NCc1ccccc1 | 37.2
S=C(Nc1ccccc1)NC1CCCCC1 | 3

same assay, conditions: filed as activator

Structure (SMILES) | inhibition [%]
COc1ccc(NC(=O)Nc2ccc(OC)cc2)cc1 | 53.6
CC(C)(C)OC(=O)NC1CCCCC1 | 42.5

organism: Homo sapiens; assay: Binding affinity to F1F0-ATP synthase subunit C (unknown origin) measured by cellular thermal shift assay (CETSA); conditions: not given

Structure (SMILES) | Activity
O=C(NC1CCCCC1)NC1CCCCC1 | Active
